Laboratory results: patent US20180215734A1, “PYRIMIDINE DERIVATIVES AS KINASE INHIBITORS AND THEIR THERAPEUTICAL APPLICATIONS” (NantBioScience, Inc., priority 2016, published 2018)
pIC50: −log10 of the molar value.

Experiments:
MEK1(h) = MEK1(h) (Homo sapiens, UniProt Q02750); assay: Kinase assay, MEK1(h); type: biochemical
CYP450 3A4 = CYP450 3A4 (Homo sapiens, UniProt P08684); assay: CYP450 inhibition, 3A4; type: in vitro ADME
From the text: (§1) Table 9 discloses toxicity data for compound 19 from various toxicity tests well known to those of ordinary skill.

[1] = Cellular toxicity, primary human hepatocyte; type: cell-based; conditions: primary hepatocytes
From the text: as §1

Lck(h) = Lck(h) (Homo sapiens, UniProt P06239); assay: Kinase assay, Lck(h); type: biochemical
Chain of Lck(h) (P06239 whole entry): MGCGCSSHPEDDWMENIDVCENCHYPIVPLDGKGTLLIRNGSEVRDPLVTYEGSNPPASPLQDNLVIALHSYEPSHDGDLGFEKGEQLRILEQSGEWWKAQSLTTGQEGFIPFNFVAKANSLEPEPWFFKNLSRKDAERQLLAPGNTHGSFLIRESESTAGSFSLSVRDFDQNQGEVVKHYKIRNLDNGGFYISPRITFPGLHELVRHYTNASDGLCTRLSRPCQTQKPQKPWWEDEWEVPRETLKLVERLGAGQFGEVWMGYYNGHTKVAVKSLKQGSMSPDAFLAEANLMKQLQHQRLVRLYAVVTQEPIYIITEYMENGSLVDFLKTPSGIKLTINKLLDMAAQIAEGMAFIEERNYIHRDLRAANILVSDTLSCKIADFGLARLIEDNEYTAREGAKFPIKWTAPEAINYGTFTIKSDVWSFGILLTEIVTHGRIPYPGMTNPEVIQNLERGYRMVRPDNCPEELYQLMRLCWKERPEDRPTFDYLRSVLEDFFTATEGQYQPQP

KG1a = assay: Inhibition of proliferation (CellTiterblue, 72 hr), KG1a; type: cell-based, human
Description: (§2) A number of studies were performed to analyze the consequences of tyrosine kinase inhibition in cell lines. To do this, 1000 cells are seeded in 27 μl/well in 384-well microplates, which are then placed in a humidified CO2 incubator at 37° C. overnight. The next day, 3 μl/well of 10× concentrated drug is added and the plates are returned to the incubator for 72 hr. After 72 hr incubation, plates are removed and 6 μl/well CellTiterblue (Promega) viability reagent is added. Plates are returned to the incubator for 3 hrs, after which fluorescence measurements are read on the Victor X3 plate reader (Perkin Elmer). Data are analyzed using Excel (Microsoft), and GI50 values are determined using Prism (Graphpad).

ALK(h) = ALK(h) (Homo sapiens, UniProt Q9UM73); assay: Kinase assay, ALK(h); type: biochemical
FGFR3(h) = FGFR3(h) (Homo sapiens, UniProt P22607); assay: Kinase assay, FGFR3(h); type: biochemical
Chain of FGFR3(h) (P22607 23-806): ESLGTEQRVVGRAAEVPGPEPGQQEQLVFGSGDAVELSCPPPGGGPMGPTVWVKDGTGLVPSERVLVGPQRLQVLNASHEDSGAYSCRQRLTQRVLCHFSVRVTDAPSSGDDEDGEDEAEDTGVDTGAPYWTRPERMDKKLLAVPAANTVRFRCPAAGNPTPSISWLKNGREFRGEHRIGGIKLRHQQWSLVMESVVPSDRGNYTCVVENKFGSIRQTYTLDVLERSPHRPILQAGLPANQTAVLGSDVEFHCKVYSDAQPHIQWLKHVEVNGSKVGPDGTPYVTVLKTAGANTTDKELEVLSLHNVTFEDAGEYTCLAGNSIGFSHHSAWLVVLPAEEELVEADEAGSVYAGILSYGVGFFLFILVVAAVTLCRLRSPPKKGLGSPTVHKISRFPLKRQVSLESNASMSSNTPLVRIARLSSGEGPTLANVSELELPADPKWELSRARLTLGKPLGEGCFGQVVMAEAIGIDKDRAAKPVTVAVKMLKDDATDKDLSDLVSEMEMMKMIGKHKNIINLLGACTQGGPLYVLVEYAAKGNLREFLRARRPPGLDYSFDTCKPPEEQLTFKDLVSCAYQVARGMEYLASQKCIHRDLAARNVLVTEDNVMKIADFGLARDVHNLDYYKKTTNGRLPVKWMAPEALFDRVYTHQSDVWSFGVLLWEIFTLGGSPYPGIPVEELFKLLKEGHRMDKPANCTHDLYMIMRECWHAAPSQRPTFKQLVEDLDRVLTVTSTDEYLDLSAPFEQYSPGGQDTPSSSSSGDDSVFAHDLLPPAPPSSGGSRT

[2] = Metabolic stability, human liver microsomes; type: in vitro ADME
ABL(h) = ABL(h) (Homo sapiens, UniProt P00519); assay: Kinase assay, ABL(h); type: biochemical
Chain of ABL(h) (P00519 whole entry): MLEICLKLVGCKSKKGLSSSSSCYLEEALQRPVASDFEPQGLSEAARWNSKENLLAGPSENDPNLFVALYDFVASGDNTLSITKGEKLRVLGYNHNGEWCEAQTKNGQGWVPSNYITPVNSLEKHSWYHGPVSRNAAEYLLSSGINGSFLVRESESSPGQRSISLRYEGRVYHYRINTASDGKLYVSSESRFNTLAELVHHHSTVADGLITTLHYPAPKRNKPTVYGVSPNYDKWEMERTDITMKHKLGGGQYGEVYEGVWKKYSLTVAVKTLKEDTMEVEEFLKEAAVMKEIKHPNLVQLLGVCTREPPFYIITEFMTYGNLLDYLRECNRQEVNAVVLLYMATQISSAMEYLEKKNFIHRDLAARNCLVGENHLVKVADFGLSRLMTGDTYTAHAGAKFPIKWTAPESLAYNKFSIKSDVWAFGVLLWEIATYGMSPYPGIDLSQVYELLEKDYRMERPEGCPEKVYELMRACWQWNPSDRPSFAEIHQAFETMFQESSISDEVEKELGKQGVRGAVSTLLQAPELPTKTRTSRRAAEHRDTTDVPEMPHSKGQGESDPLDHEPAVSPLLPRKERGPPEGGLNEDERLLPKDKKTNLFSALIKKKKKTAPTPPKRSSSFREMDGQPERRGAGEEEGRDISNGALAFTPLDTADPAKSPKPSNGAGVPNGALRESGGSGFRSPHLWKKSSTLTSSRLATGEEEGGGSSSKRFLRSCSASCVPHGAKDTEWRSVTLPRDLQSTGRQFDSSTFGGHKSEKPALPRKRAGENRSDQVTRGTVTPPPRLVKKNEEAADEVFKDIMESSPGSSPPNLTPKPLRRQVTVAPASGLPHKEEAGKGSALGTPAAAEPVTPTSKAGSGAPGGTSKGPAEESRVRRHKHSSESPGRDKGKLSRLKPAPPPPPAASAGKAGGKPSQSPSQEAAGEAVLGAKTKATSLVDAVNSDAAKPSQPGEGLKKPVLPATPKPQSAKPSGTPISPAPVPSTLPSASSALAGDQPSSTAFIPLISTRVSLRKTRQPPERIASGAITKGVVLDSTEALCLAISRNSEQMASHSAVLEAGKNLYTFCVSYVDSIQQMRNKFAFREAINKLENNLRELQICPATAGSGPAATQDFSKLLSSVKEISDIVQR

Mer(h) = Mer(h) (Homo sapiens, UniProt Q12866); assay: Kinase assay, Mer(h); type: biochemical
Flt4(h) = Flt4(h) (Homo sapiens, UniProt P35916); assay: Kinase assay, Flt4(h); type: biochemical
FGFR2 = target: T1, FGFR2 (Homo sapiens, UniProt P21802); assay: BaF3 cells engineered for expression of FGFR2; type: cell-based; conditions: read-out: IC5o(nM) FGFR2
T1 construct: expressed in transfected cells; host or cells: BaF3
From the text: (§3) In FIG. 1 these kinases are from the fibroblast growth factor receptor class of kinases (FGFR1-FGFR4). Compound 19 kinase inhibitory activity FGFR1-FGFR4 are also depicted in Table 5.

RT112 = assay: Inhibition of proliferation (CellTiterblue, 72 hr), RT112; type: cell-based; conditions: Homo sapiens, RT-112, 72 h
Description: as §2

KDR(h) = KDR(h) (Homo sapiens, UniProt P35968); assay: Kinase assay, KDR(h); type: biochemical
Chain of KDR(h) (P35968 20-1356): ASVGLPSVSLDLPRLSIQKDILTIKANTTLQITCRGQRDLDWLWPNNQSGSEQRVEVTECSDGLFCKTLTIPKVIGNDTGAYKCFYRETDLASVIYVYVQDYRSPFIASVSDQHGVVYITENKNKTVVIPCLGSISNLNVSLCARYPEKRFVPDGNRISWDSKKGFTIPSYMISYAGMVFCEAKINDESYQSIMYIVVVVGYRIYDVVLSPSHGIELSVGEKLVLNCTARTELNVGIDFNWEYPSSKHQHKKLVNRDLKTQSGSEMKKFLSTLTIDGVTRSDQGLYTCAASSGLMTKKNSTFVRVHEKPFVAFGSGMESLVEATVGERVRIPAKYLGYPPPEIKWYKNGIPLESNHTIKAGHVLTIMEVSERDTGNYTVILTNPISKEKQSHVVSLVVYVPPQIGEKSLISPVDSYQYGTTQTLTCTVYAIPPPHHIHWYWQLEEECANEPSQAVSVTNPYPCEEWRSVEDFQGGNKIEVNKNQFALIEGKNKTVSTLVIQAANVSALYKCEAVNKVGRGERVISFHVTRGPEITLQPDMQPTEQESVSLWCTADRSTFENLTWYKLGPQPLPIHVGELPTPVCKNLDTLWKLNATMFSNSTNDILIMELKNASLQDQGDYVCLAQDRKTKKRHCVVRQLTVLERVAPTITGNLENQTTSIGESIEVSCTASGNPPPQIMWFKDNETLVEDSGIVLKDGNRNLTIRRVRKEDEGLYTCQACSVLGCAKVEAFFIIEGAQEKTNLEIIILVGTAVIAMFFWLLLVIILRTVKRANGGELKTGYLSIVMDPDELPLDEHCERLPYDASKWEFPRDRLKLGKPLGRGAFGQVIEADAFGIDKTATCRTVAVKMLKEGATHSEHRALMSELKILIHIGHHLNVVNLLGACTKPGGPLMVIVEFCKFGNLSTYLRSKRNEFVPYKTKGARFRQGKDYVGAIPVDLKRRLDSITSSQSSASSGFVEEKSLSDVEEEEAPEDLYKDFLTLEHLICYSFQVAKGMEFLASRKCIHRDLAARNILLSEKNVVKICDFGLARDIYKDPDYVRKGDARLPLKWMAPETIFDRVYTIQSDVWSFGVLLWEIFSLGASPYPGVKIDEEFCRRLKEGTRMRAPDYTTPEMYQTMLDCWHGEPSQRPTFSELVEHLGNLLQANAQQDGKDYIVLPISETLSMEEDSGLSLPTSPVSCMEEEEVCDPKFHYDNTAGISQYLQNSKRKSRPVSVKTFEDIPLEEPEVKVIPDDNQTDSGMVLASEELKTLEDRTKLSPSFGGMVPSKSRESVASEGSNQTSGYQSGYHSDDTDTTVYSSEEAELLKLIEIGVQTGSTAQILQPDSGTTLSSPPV
Description: (§4) Kinase assay protocols well known to those of ordinary skill in the art were used. Specifically, the buffer composition was as follows: 20 mM MOPS, 1 mM EDTA, 0.01% Brij-35, 5% Glycerol, 0.1% β-mercaptoethanol, 1 mg/mL BSA. Test compounds were initially dissolved in DMSO at the desired concentration, then serially diluted to the kinase assay buffer. In a final reaction volume of 25 μL FGFR1(h) (5-10 mU) and KDR(h) (5-10 mU) are incubated with 8 mM MOPS pH 7.0, 0.2 mM EDTA, 200 μM LRRASLG (Kemptide), 10 mM magnesium acetate and [γ^33P-ATP]. The reaction was initiated by the addition of the MgATP mix. After incubation for 40 minutes at room temperature, the reaction was stopped by addition of 5 μL of a 3% phosphoric acid solution. Ten L of the reaction was then spotted onto a P30 filter mat and washed three times for 5 minutes in 50 mM phosphoric acid and once in methanol prior to drying and scintillation counting. Wells containing substrate but no kinase and wells containing a phosphopeptide control were used to set 0% and 100% phosphorylation value, respectively.
(§5) Of all of the steps in developing a drug, the hardest is finding promising compounds. (See, e.g., Malo et al., “Statistical practice in high-throughput screening data analysis,” Nature Biotechnology, 2006, 24, 167-75.) Kinase inhibitors often also have an anti-proliferative effect. […] The kinase inhibitory activity Compound 19 was tested using the kinase assay described in Example 3. […] These mutations in the tested kinases are thought to play an important role in transformation of some cancers.

[3] = Pharmacokinetic profile in rats; type: in vivo; conditions: Rat
From the text: Compound 19's pharmacokinetic profile is consistent with Compound 19 being used as a therapeutic agent.

FGFR4(h) = FGFR4(h) (Homo sapiens, UniProt P22455); assay: Kinase assay, FGFR4(h); type: biochemical
AJK2(h) = AJK2(h) (Homo sapiens, UniProt O60674); assay: Kinase assay, AJK2(h); type: biochemical
IGF-1R(h) = IGF-1R(h) (Homo sapiens, UniProt P08069); assay: Kinase assay, IGF-1R(h); type: biochemical
FGFR1(h) = FGFR1(h) (Homo sapiens, UniProt P11362); assay: Kinase assay, FGFR1(h); type: biochemical
Chain of FGFR1(h) (P11362 22-822): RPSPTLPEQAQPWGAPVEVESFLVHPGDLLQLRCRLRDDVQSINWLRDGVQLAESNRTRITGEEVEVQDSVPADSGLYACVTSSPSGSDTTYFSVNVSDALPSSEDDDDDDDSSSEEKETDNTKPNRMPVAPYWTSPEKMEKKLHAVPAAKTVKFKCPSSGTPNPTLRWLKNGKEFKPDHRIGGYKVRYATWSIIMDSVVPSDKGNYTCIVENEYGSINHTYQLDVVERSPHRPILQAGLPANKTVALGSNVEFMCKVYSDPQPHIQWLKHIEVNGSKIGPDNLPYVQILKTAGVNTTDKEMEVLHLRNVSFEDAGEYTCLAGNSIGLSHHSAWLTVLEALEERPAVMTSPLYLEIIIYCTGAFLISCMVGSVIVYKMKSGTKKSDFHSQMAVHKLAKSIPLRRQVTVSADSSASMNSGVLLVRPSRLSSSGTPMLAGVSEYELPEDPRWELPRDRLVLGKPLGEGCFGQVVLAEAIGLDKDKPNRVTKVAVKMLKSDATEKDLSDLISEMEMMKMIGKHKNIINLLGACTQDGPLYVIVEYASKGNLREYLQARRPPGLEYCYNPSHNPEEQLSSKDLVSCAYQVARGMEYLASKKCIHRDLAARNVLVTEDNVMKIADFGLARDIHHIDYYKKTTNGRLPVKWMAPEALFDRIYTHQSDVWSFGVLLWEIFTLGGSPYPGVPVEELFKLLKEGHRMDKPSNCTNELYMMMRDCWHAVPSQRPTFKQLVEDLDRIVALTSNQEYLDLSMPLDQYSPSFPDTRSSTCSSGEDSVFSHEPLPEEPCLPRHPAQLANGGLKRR
Description: as §4, §5

Parental BaF3 cells = assay: BaF3 cell model, Parental; type: cell-based; conditions: Mus musculus, read-out: IC5o(nM) Parental
From the text: as §3

SNU16 = assay: Inhibition of proliferation (CellTiterblue, 72 hr), SNU16; type: cell-based; conditions: Homo sapiens, SNU-16, 72 h
Description: as §2

FGFR1 = target: T2, FGFR1 (Homo sapiens, UniProt P11362); assay: BaF3 cells engineered for expression of FGFR1; type: cell-based; conditions: read-out: IC5o(nM) FGFR1
T2 construct: expressed in transfected cells; host or cells: BaF3
From the text: as §3

Chain of CYP450 3A4 (P08684 whole entry): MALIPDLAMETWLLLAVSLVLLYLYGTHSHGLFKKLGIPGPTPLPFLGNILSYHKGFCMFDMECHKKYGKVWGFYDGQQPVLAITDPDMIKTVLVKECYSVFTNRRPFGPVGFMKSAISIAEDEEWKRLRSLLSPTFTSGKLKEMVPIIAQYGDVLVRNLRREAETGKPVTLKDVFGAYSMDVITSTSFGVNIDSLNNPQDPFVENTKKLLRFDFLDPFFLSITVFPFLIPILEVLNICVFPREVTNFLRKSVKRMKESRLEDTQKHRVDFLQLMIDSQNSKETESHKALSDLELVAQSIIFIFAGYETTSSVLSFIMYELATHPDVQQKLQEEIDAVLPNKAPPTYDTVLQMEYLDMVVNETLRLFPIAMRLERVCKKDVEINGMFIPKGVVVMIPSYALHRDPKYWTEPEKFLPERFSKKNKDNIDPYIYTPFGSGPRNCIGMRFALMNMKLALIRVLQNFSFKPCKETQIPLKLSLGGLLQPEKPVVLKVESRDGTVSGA

`Cc1cc2c(F)c(Oc3ncnc(Nc4ccc(N5C[C@@H](C)N[C@@H](C)C5)cc4)c3C#N)cc(F)c2[nH]1` [Compound 19] gave a pIC50 (MEK1(h)) of less than 6.00, a pIC50 (CYP450 3A4) of 4.17 and a CC50 [1] of 20000 nM. The pIC50 (Lck(h)) was less than 6.00, the GI50 (KG1a; Homo sapiens, KG-1a, 72 hr) was 0.2 nM and the “Anti-proliferation activity in KG1a (in words)” value (KG1a; proliferation assay of Example 2) was “especially effective”. It also gave a pIC50 (ALK(h)) of less than 6.00, a pIC50 (FGFR3(h)) of 7.92 and a half-life [2] greater than 1 h. For the same molecule, the pIC50 (ABL(h)) was less than 6.00, the pIC50 (Mer(h)) was less than 6.00 and the pIC50 (Flt4(h)) was 6.94. For the same molecule, the IC50 (FGFR2) was 17.6 nM, the GI50 (RT112) was 66 nM and the pIC50 (KDR(h)) was 6.31. For the same molecule, the inhibition at 1 µM (KDR(h)) was 86%, the “Oral Bioavailability (% F)” value ([3]; PO 5 mg/Kg) was 76 % F and the clearance ([3]; in vivo, IV 1 mg/Kg) was 17.6 mL/min/kg. It also gave a half-life ([3]; in vivo, IV 1 mg/Kg, read-out: Terminal Half Life (converted)) of 6.81 h, a Vd ([3]; in vivo, IV 1 mg/Kg, read-out: Vz) of 9.54 L/kg and a pIC50 (FGFR4(h)) of 7.92. It also gave a pIC50 (AJK2(h)) of less than 6.00, a pIC50 (IGF-1R(h)) of less than 6.00 and a pIC50 (FGFR1(h)) of 9.05. It also gave an inhibition at 1 µM (FGFR1(h); 1 μM) of 100%, an IC50 (Parental BaF3 cells) of 1890 nM and a GI50 (SNU16) of 12 nM. For the same molecule, the IC50 (FGFR1) was 11.4 nM.
